Patent publication US10624884B2, “H4 agonist molecule for the treatment of idiopathic pulmonary fibrosis” (H4 ORPHAN PHARMA, priority 2016, dated 2020)

Legend:
TGFβ = experiment: Bleomycin mouse model: measurement of cytokines (TGFβ) in lung homogenate, Luminex assay; assay type: in vivo, mice (C57/B16J, BL6); conditions: BLM mice; P=0.001 for both substances; FIG. 1A
Protocol: (§1) The bleomycin mouse protocol (BLM) was conducted with all of the mice of each group of 10 mice (species: C57/B16J, referred to further on as BL6); these are female mice 8 weeks old.
(§2) All of the mice of all of the groups (except group 1) receive bleomycin (BLM) intranasally (3 mg/kg via intranasal instillation) for 5 consecutive days and will be monitored daily and killed at D+29 after BLM instillation in order to study the chronic pulmonary inflammation and the fibrosis. The bleomycin being administered five times at the age of 8 weeks (see diagram 3A).
(§3) The treatment with tritoqualine is done in 2 doses, 20 and 40 mg/kg/day throughout the entire life of the mice. The treatment with tritoqualine starts fourteen days after the first inhalation of the treatment with bleomycin. The treatment is done orally. The groups studied were as follows:
The interferon gamma and TGFβ levels were measured in a lung homogenate; the concentrations of these different cytokines were determined by a Luminex assay using a MAGPIX (Biorad, France) according to the manufacturer's instructions.

histamine H4 receptor = histamine H4 receptor (Homo sapiens, UniProt Q9H3N8); conditions: shown in US 2010144718A; cited from earlier work
Chain of histamine H4 receptor (Q9H3N8 whole entry, species assumed): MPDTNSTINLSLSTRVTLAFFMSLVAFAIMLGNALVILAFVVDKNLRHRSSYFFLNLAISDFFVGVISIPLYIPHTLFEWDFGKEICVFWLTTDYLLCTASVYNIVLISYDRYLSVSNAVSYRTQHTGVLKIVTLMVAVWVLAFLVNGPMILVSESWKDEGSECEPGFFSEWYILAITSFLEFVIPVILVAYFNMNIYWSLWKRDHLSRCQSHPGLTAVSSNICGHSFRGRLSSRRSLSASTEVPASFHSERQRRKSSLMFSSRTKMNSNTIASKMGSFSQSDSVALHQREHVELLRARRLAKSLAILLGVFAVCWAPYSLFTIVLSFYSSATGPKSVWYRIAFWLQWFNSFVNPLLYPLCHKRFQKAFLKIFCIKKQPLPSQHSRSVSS

CFU rich in H4 receptor = experiment: Proliferation of CFU rich in H4 receptor (FIG. 5); assay type: cell-based; conditions: for Activity on CFU proliferation when an anti H4 is used: with an anti H4
histidine decarboxylase = molecular target: T1, histidine decarboxylase (Homo sapiens, UniProt P19113); conditions: background statement; cited from earlier work
T1 sequence (P19113 1-662): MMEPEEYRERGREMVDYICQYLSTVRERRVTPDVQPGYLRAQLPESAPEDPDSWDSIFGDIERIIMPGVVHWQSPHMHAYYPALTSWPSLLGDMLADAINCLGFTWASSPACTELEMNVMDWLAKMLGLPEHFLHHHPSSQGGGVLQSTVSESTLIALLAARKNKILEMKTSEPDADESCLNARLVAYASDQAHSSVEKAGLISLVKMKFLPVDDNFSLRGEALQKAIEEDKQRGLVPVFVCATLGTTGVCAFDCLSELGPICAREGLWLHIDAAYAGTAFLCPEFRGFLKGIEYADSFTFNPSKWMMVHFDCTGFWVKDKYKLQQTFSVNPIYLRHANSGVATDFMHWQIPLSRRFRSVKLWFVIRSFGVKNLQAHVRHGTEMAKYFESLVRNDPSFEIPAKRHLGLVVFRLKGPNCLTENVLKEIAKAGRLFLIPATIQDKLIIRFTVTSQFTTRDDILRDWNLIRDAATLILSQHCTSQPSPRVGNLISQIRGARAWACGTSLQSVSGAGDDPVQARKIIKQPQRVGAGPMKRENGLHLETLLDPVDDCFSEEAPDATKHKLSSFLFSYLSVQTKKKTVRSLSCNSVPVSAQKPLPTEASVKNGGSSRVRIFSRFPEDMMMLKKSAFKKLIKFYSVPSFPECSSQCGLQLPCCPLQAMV

[1] = test system: bleomycin mouse model of idiopathic pulmonary fibrosis (BL6 mice); experiment: Bleomycin mouse model: lung histology, semi-quantitative fibrosis score (Ashcroft score); assay type: in vivo, mice (C57/B16J
Protocol: as §1
The analyse of the Fibrosis was conducted with all the animals of each group, respectively. The extent of the fibrosis was analysed biochemically, histologically and cytologically using various quantitative and semi quantitative methods.
All of the mice BL6 are treated according to the protocol hereinbelow. • 5 groups of mice were evaluated.
The treatment with bleomycin (BLM) is done according to the following protocol:
as §2, §3
After bronchoalveolar lavage (BAL) and perfusion of the lung, the large lobe was fixed in 4% buffered formaldehyde for standard microscopic analysis (Leica microscope). […] sections were coloured with Masson's trichrome (TM) by using standard techniques, which allow for the evaluation of the fibrosis (TM) as the fibres of collagen are coloured blue and the observation of the extent of the inflammation.
The fibrosis was evaluated by a semi-quantitative score (0-5) (Ashcroft score) with the increase in severity by two independent observers.
The fibrosis with the deposit of collagen located at the alveolar walls and in the peribronchial area and the infiltration of inflammatory cells were evaluated using a semi-quantitative score of 0-5 with an increasing severity by two independent observers.

collagen = experiment: Bleomycin mouse model: titration of collagen (hydroxyproline) in lung homogenate; assay type: in vivo, mice (C57/B16J, BL6); conditions: for Collagen (hydroxyproline), mean±standard deviation: BLM mice, n=10, bleomycin group 340.0±4.888
Protocol: as §1, §2, §3
The collagen content is done after homogenisation of the lung. After bronchoalveolar lavage (BAL), the entire lung was perfused with a saline solution through the right ventricle of the heart in order to empty the vascular content.
The lungs were frozen at −70° C. until they were used. The lung was then homogenised in PBS and centrifuged.
The supernatant was discarded and the lower portion was put back into suspension in 1 ml of PBS containing 0.5% hexadecyltrimethylammonium bromide (HTAB) and 5 mM ethylene-diamine-tetra-acetic acid (EDTA).
After centrifugation, the collagen content was determined by the Sircol assay (France Biochem Division, France), as described by the manufacturer.
The titration of the collagen (method by the dosage of hydroxyproline) is expressed in μg/mg of proteins.

[2] = commercial white powder; degrades in Cotarnine and phthalic acid; cited from earlier work
[3] = test system: idiopathic pulmonary fibrosis; conditions: 1,800 mg/d for one year, in addition to corticoids and azathioprine, cited from earlier work
[4] = pirfenidone 100 mg/kg po versus bleomycin

CCOc1c(N)c2c(c(OCC)c1OCC)C(C1c3c(cc4c(c3OC)OCO4)CCN1C)OC2=O (centres unmarked) [Tritoqualine, 7-Amino-4,5,6-triethoxy-3-(5,6,7,8-tetrahydo-4-methoxy-6-methyl-1,3-dioxolo[4,5-g]isoquinolin-5-yl) phthalide]
Effect on TGFβ in lung homogenate (TGFβ): strongly inhibits | Action on the histamine H4 receptor (histamine H4 receptor): very substantial action | Effect on the proliferation of CFU rich in H4 receptor (CFU rich in H4 receptor): able to inhibit the proliferation of CFU | Activity on CFU proliferation when an anti H4 is used (CFU rich in H4 receptor): substantially diminished | Inhibiting activity on histidine decarboxylase (histidine decarboxylase): very low | Efficacy on histology versus bleomycin (conclusion) ([1]; tritoqualine 20 mg/kg po, D14 to D28, P<0.0002): very high efficacy | Effect on the histological score ([1]; tritoqualine at the dose of 20 or 40 mg/kg, po): substantially decreases the histological score | Collagen (hydroxyproline), mean±standard deviation (collagen; tritoqualine 20 mg/kg po, P<0.0001): 280.0±7.528 μg/mg of proteins | Collagen (hydroxyproline), difference between the two means (treated versus bleomycin) (collagen; tritoqualine 20 mg/kg po versus bleomycin): −60.00±8.975 μg/mg of proteins | Stability to light [2]: highly sensitive to light

CC(=O)N[C@@H](CS)C(=O)O [N-acetylcysteine]
Average decrease in the decline of the forced vital capacity ([3]; (0.03-0.32)): 0.18 L | Decrease in the decline of the diffusion of CO [3]: 24% | Mortality between the two groups [3]: no difference in mortality | Relative difference in the decline of the forced vital capacity [3]: 9%

NC(=NCc1ccc(Cl)cc1)SCCCc1cnc[nH]1 [Clobenpropit]
Activity on CFU proliferation when an anti H4 is used (CFU rich in H4 receptor): substantially diminished

Cc1ccc(=O)n(-c2ccccc2)c1 [Pirfenidone, pirfenidone]
Effect on TGFβ in lung homogenate (TGFβ): strongly inhibits | Histological semi-quantitative score (0-5) (Ashcroft score), mean±standard deviation ([1]; BLM mice, pirfenidone 100 mg/kg po, n=10, bleomycin group 4.2±0.14, P 0.0449): 3.8±0.12 | Histological score, difference between the two means (treated versus bleomycin) [1, 4]: −0.40±0.18 | Collagen (hydroxyproline), mean±standard deviation (collagen; pirfenidone 100 mg/kg po, P 0.0450): 316.5±9.748 μg/mg of proteins | Collagen (hydroxyproline), difference between the two means (treated versus bleomycin) (collagen; [4]): −23.50±10.90 μg/mg of proteins
